System: lipase
Assay: Stability of iturin A to lipase in fermentation broth
Format: in vitro ADME
Conditions: RSM (76.52 g/L) fermentation broth after 72 h fermentation; 5 U/mL lipase added vs no lipase; continued at 28 °C, 220 rpm; iturin A concentration at 0, 24, 48 and 72 h by HPLC (210 nm); triplicate; Fig. 5
Experimental: Iturin A was extracted according to a reported method. Briefly, 0.3 mL of the mixed fermentation broth was added into a 2 mL glass tube containing 1.2 mL of methanol, shaken well and incubated for 60 min. The mixture was centrifuged at 12,000 rpm for 20 min, and the supernatant was filtered through a 0.22 μm pore-size hydrophobic polytetrafluoroethylene (PTFE) type disposable syringe. The iturin A concentration was quantified using a Waters 2695 HPLC system equipped with an ACQUITY UPLC BEA C18 column (1.7 μm 2.1 × 100 mm, Waters, USA). A mixture of acetonitrile and 10 mM ammonium acetate (35:65, v/v) was used as the mobile phase at a flow rate of 0.3 mL/min, and the elution was monitored at 210 nm. The concentration of iturin A was analyzed and quantified using an authentic reference standard (Sigma Chemicals, St. Louis, MO, USA). The content of iturin A was measured using triplicate samples.
First, submerged fermentation were performed in 250 mL flasks with 20 mL medium, containing (per liter): 60 g glucose, 1 g K2HPO4·3H2O, 0.5 g MgSO4·7H2O, 0.005 g MnSO4·H2O, and 76.52 g RSM. After 72 h of fermentation, the fermentation broth was divided into two groups. Therein, one group supplemented with 5 U/mL lipase while the other without lipase addition. […] And the concentrations of iturin A at different time (0, 24, 48 and 72 h) were measured.

iturin A
stability of iturin A to excess lipase: almost no effect on the stability of iturin A
